The values below come from BindingDB's records for doi:10.1021/jm060108a (University of Liège, 2006).

This assay in a line: Inhibition of U46619-induced platelet aggregation.

Compound `Cc1ccc(Sc2ccc([N+](=O)[O-])cc2S(=O)(=O)NC(=O)NC(C)(C)C)cc1` [N-tert-butyl-N'-[2-(4-methylphenylthio)-5-nitrobenzenesulfonyl]urea] yielded an IC50 of 800 nM.
As to `Cc1ccc(Oc2ccc([N+](=O)[O-])cc2S(=O)(=O)NC(=O)NC(C)(C)C)cc1` [N-tert-butyl-N'-[2-(4-methylphenoxy)-5-nitrobenzenesulfonyl]urea], the IC50 worked out at 300 nM.
On to `Cc1cccc(C)c1Nc1ccc([N+](=O)[O-])cc1S(=O)(=O)NC(=O)NC(C)(C)C` [N-tert-butyl-N'-[2-(2,6-dimethylphenylamino)-5-nitrobenzenesulfonyl]urea], for which half-maximal inhibition (IC50) required 90 nM. This IC50 is about 3.3-fold lower than that of the compound before.
As for `Cc1ccc(Nc2ccc([N+](=O)[O-])cc2S(=O)(=O)NC(=O)NC(C)(C)C)cc1` [BM 573], the IC50 is 240 nM.
As to `Cc1ccc(Nc2ccc([N+](=O)[O-])cc2S(=O)(=O)NC(=O)N2CCCCC2)cc1` [N-[2-(4-methylphenylamino)-5-nitrobenzenesulfonyl]-piperidine-1-carboxamide], the IC50 was found to be 900 nM.
Regarding `CCCCCNC(=O)NS(=O)(=O)c1cc([N+](=O)[O-])ccc1Oc1ccc(C)cc1` [N-n-pentyl-N'-[2-(4-methylphenoxy)-5-nitrobenzenesulfonyl]urea], half-maximal inhibition (IC50) was put at 670 nM.
For the compound `CCCCCNC(=O)NS(=O)(=O)c1cc([N+](=O)[O-])ccc1Nc1ccc(C)cc1`, the IC50 worked out at 278 nM. This IC50 is about 2.4-fold lower than that of the compound before.

One may read the IC50 as the concentration that gives 50% inhibition. Lower therefore signals greater potency.
